The values below come from publication PMC10095686, “Evaluation of the Anticancer Activity and Mechanism Studies of Glycyrrhetic Acid Derivatives toward HeLa Cells” (Molecules, 2023).

What all share (assay type): cell-based
Test [1] has as its system LO2. Put plainly: MTT cytotoxicity assay, normal cells. The note with it: Homo sapiens, L02, 48 h. As for the experimental part: (§1) The effects of compounds on cells proliferation were evaluated using the 3-(4,5-dimethylthiazol-2-yl)-2,5-diphenyltetrazolium bromide (MTT) assay. […] The cells were placed in 96-well plates and treated overnight at 37 °C and 5% CO2. When the cells grew to about 80%, they were treated with different concentrations of compound 3a for 48 h. Then, the culture medium was removed and MTT solution was added. After 4 h, the absorbance values were measured at 490 nm. In addition, the IC50 values were calculated with SPSS (Statistical Product and Service Solutions).
(In general: Formazan colour is commonly taken as a measure of viable cells.)

Test [2] concerns B16. Nature of the test: MTT cytotoxicity assay. Conditions: Mus musculus, 48 h. As for the experimental part:
as §1

In test [3] the test system is A549. Put plainly: MTT cytotoxicity assay. The note with it: Homo sapiens, 48 h. As for the experimental part:
as §1

The subject of test [4] is SGC-7901. Nature of the test: MTT cytotoxicity assay. Conditions: Homo sapiens, 48 h. The protocol: as §1
Test [5] concerns HeLa. Nature of the test: MTT cytotoxicity assay. The note with it: Homo sapiens, 48 h. As for the experimental part:
as §1

Test [6] relates to BEL-7402. Put plainly: MTT cytotoxicity assay. Conditions: Homo sapiens, 48 h. The protocol:
as §1

For orientation: IC50 means the concentration at which inhibition is half-maximal. Higher therefore signals a need for much substance. In the case of `CC1(C)C2CC[C@]3(C)C(C(=O)C=C4[C@@H]5C[C@@](C)(C(=O)Oc6ccc(Cl)cc6)CC[C@]5(C)CC[C@]43C)[C@@]2(C)CC[C@@H]1O` (stereo partly drawn) [Compound 3b, 4-Chlorophenyl 3β-hydroxy-11-oxo-olean-12-en-30-oate], the IC50 in test [1] stood at 32.4 ± 7.4 µM; in test [2] it was 44.4 ± 5.7 µM; in test [3] it was 17.7 ± 2 µM; in test [4], 44.9 ± 5.9 µM; in test [5], 24 ± 0.8 µM; in test [6] it was 39.9 ± 4.5 µM.

Regarding `CC1(C)C2CC[C@]3(C)C(C(=O)C=C4[C@@H]5C[C@@](C)(C(=O)Oc6ccc(F)cc6)CC[C@]5(C)CC[C@]43C)[C@@]2(C)CC[C@@H]1O` (stereo partly drawn) [Compound 3c, 4-Fluorophenyl 3β-hydroxy-11-oxo-olean-12-en-30-oate], the IC50 in test [1] is 74.2 ± 5.5 µM; in test [2], 56.7 ± 4.5 µM; in test [3] it was 45.3 ± 3.4 µM; in test [4], 43.5 ± 3.8 µM; in test [5], 38 ± 6.4 µM; in test [6], > 100 µM.

For `CC1(C)C2CC[C@]3(C)C(C(=O)C=C4[C@@H]5C[C@@](C)(C(=O)Oc6ccc([N+](=O)[O-])cc6)CC[C@]5(C)CC[C@]43C)[C@@]2(C)CC[C@@H]1O` (stereo partly drawn) [Compound 3d, 4-Nitrophenyl 3β-hydroxy-11-oxo-olean-12-en-30-oate], the 50% inhibitory concentration (IC50) in test [1] came to 78.7 ± 4.4 µM; in test [2], 39.1 ± 4.7 µM; in test [3], 26.9 ± 1.5 µM; in test [4], 32.1 ± 4.4 µM; in test [5] it was 23.2 ± 0.89 µM; in test [6], 26.4 ± 3.2 µM.

On to `Cc1ccc(OC(=O)[C@@]2(C)CC[C@]3(C)CC[C@]4(C)C(=CC(=O)C5[C@@]6(C)CC[C@H](O)C(C)(C)C6CC[C@]54C)[C@@H]3C2)cc1` (stereo partly drawn) [Compound 3e, p-Tolyl 3β-hydroxy-11-oxo-olean-12-en-30-oate], for which the IC50 in test [1] is 36.7 ± 3 µM; in test [2], 43.4 ± 3.6 µM; in test [3], 21.2 ± 1.1 µM; in test [4] it was 73.1 ± 5.6 µM; in test [5], 26.6 ± 1.5 µM; in test [6] it was > 100 µM.

With `COc1ccc(OC(=O)[C@@]2(C)CC[C@]3(C)CC[C@]4(C)C(=CC(=O)C5[C@@]6(C)CC[C@H](O)C(C)(C)C6CC[C@]54C)[C@@H]3C2)cc1` (stereo partly drawn) [Compound 3f, 4-Methoxyphenyl 3β-hydroxy-11-oxo-olean-12-en-30-oate], the half-inhibitory concentration (IC50) is 71.7 ± 2.6 µM in test [1]; 48.3 ± 1.2 µM in test [2]; 32.7 ± 1.7 µM in test [3]; 69.2 ± 13.3 µM in test [4]; 45.5 ± 2.1 µM in test [5]; 41.6 ± 2.3 µM in test [6].

As to `CC1(C)[C@@H](O)CC[C@]2(C)[C@H]3C(=O)C=C4[C@@H]5C[C@@](C)(C(=O)O)CC[C@]5(C)CC[C@@]4(C)[C@]3(C)CC[C@@H]12` [GA, 18β-glycyrrhetinic acid, reference compound], the half-maximal inhibitory concentration (IC50) in test [1] was determined as 87.5 ± 5.5 µM; in test [2], 57.6 ± 5.8 µM; in test [3], 61.1 ± 12.5 µM; in test [4] it was 75.9 ± 10.8 µM; in test [5] it was 62.9 ± 3.4 µM; in test [6] it was 45.9 ± 3.6 µM.
